Patent US20240238297A1, “USES AND METHODS FOR RECURRENT PRIMARY CNS NEOPLASMS” (CHIMERIX, INC., priority 2021, published 2024)
Where a name gives a salt, the structure may show the parent alone.

Assays:
[1] = test system: diffuse midline glioma, H3 K27M-mutant; details: patients with DMG H3K27M; cited from earlier work
endometrial cancer = details: advanced cancer patients; cited from earlier work
high grade gliomas = details: advanced cancer patients; cited from earlier work
[2] = stability: percentage of impurities after two months; format: physicochemical
Protocol: (§1) Dihydrochloride salts of compounds within the class of impiridones of which ONC-206 is a member, achieve unexpected technical effects. […] In addition, after two months at 25° C. and at 40° C., the percentage of impurities in the dihydrochloride salt is not detected and 3%, respectively; while for the free base the corresponding the percentage of impurities is 20% and 24%, respectively. This technical effect appears to extend to the class of impiridones.

[3] = solubility in water, ONC-201 dihydrochloride salt vs free base; format: physicochemical
Protocol: as §1

[4] = pharmacokinetics/toxicokinetics in dogs; details: dog, in vivo

Q: Which “tumor response in patients” value [1] does the source give for `Cc1ccccc1CN1C(=O)C2=C(CCN(Cc3ccccc3)C2)N2CCN=C12` [ONC201, 7-benzyl-4-(2-methylbenzyl)-2,4,6,7,8,9-hexahydroimidazo[1,2-a]pyrido[3,4-e]pyrimidin-5(1H)-one] here?
A: induced durable tumor regressions

Q: What about the “PFS compared to historical control” value (endometrial cancer) of the same compound?
A: several patients experienced prolonged PFS

Q: And the RANO response (high grade gliomas)?
A: several patients achieved a RANO response

Q: For `Cc1ccccc1CN1C(=O)C2=C(CCN(Cc3ccccc3)C2)N2CCN=C12` [ONC-201 free base, 7-benzyl-4-(2-methylbenzyl)-2,4,6,7,8,9-hexahydroimidazo[1,2-a]pyrido[3,4-e]pyrimidin-5(1H)-one], which percentage of impurities ([2]; after two months at 25° C.) is on record?
A: 20%

Q: And the percentage of impurities ([2]; after two months at 40° C.)?
A: 24%

Q: And the solubility in water [3]?
A: less than 1 mg/mL

Q: With `Cc1ccccc1CN1C(=O)C2=C(CCN(Cc3ccccc3)C2)N2CCN=C12` [ONC-201 dihydrochloride salt, 7-benzyl-4-(2-methylbenzyl)-2,4,6,7,8,9-hexahydroimidazo[1,2-a]pyrido[3,4-e]pyrimidin-5(1H)-one] as the compound, how does the percentage of impurities ([2]; after two months at 25° C.) read?
A: not detected

Q: And the percentage of impurities ([2]; after two months at 40° C.)?
A: 3%

Q: And the solubility in water [3]?
A: greater than 50 mg/mL

Q: What does the source list for `O=C1C2=C(CCN(Cc3ccccc3)C2)N2CCN=C2N1Cc1ccc(F)cc1F` [ONC206, 7-benzyl-4-(2,4-difluorobenzyl)-2,4,6,7,8,9-hexahydroimidazo[1,2-a]pyrido[3,4-e]pyrimidin-5(1H)-one]?
A: half-life ([4]; beagle): 0.7 to 7.1 h; CL/F ([4]; both, Beagle, po): 83.3 to 1680 mL/min/kg; Vd/F ([4]; both, Beagle, po): 25.2 to 259 L/kg; half-life ([4]; both, Beagle, po): 0.7 to 7.1 h
